Consider 6 substances from patent US4929718A, “Synthetic noxiustoxin related peptides” (Universidad Nacional Autonoma De Mexico, priority 1987, dated 1990).

Ends that are not written are not given here.

In one series the test system is BALB/c mice. To be noted: BALB/c mice immunized for two months, immunodiffusion against NTX 1-39 coupled to MSA, FIG. 3. The text has this: A group of ten mice were immunized with each peptide and a second group of mice were immunized with each peptide coupled to mouse serum albumin as a carrier molecule.
Another series relates to potassium channel. Kind of series: voltage-clamp study of potassium channel blockade in dorsal root ganglion cells. To be noted: concentrations of up to 100 micromolar, chick embryo dorsal root ganglion cells. In kind it is cell-based. The text has this:
(§1) The mechanism of action of all synthetic peptides was verified by three independent essays: "in vivo" challenge by injection of albino mice (strain CD1) with different amounts of synthetic peptides; liberation of radioactive (tritiated) gamma-amino-butyric acid from mouse brain synaptosomes; and confirmation of the results with electrophysiological experiments, through voltage-clamp technique, in chick embryo dorsal root ganglion cells maintained in "in vitro" culture.

For the next series, the system named is albino mice (strain CD1). Kind of series: "in vivo" challenge / lethality tests of synthetic peptides by injection of mice. To be noted: for lethality test outcome: mouse, in vivo.
In the next series the test system is mouse brain synaptosomes. Briefly: release of tritiated GABA from mouse brain synaptosomes. The series is classed as cell-based. To be noted: for effect on GABA (neurotransmitter) release: mouse brain synaptosomes preloaded with 3H-GABA, FIG. 2.
Description: as §1
In the experiments involving release of neurotransmitters, mouse brain synaptosomes were preloaded with radioactive gamma-amino-butyric acid (2, 3, 3H-GABA) and were placed in Millipore filters ([…]) in perfusion chambers, each one containing 0.2 to 0.3 mg. of synaptosomal protein. The fractions from the perfusate (0.5 ml. each) were collected by means of a peristaltic pump at one minute intervals. After 6 minutes, a solution containing synthetic polypeptides was added to the experimental chambers and the radioactivity release was counted in an apparatus for measuring radioisotopes. […] The liberation of GABA per minute is expressed as a percentage of the total radioactivity present in the synaptosomes at the beginning of the experiment.

Series [1] has as its system mice challenged with Noxiustoxin. To be noted: challenge with effective lethal dose of Noxiustoxin (150 g per mouse).
The mark [2] stands for this setting: dose 200 g (so in the source), intraventricularly.

On to “Methionine-Asparagine-Glycine-Lysine-Cysteine-Lysine-Cysteine-Tyrosine-Asparagine-Asparagine [NTX 30-39]”, for which, in the series on BALB/c mice, the immunogenicity result is on record as “immunogenic”. Also, in the series with potassium channel, the “change in the potassium currents” value was “no change”.

In the case of “Noxiustoxin (TIINVKCTSPKQCSKPCKELYGSSAGAKCMNGKCKCYNN; UniProt P08815 1-39, looked up) [Native NTX]”, the “intoxication symptoms and outcome” value in the series with albino mice (strain CD1) (dose of 40 g per 20 grams of mouse body weight) is recorded as “generally produces death”. Moreover, the lethality test outcome in the series on albino mice (strain CD1), with albino mice (strain CD1) (ip) and in the series on albino mice (strain CD1) (sc) was “Toxic” in each case. For the same substance, the “effect on GABA (neurotransmitter) release” value in the series on mouse brain synaptosomes is “increases neurotransmitter release”.

Regarding “TIINVKCTS [NTX 1-9, Threonine-Isoleucine-Isoleucine-Asparagine-Valine-Lysine-Cysteine-Threonine-Serine]”, the time to death with albino mice (strain CD1) (dose 100 g (so in the source), intraventricularly) is at most 20 h; in the series with albino mice (strain CD1) (setting [2]), under 0.333 h. For the same substance, the time to convulsions with albino mice (strain CD1) (setting [2]) was at most 12 min.

With “Threonine-Isoleucine-Isoleucine-Asparagine-Valine-Lysine-Cysteine-Threonine-Serine-Proline-Lysine-Glutamine-Cysteine-Serine-Lysine-Proline-Cysteine-Lysine-Glutamic Acid-Leucine [NTX 1-20]”, the “effect on GABA (neurotransmitter) release” value in the series on mouse brain synaptosomes is given as “increases neurotransmitter release”.

As to “Threonine-Isoleucine-Isoleucine-Asparagine-Valine-Lysine-Cysteine-Threonine-Serine-Proline-Lysine-Glutamine-Cysteine-Serine-Lysine-Proline-Cysteine-Lysine-Glutamic Acid-Leucine-Tyrosine-Glycine-Serine-Serine-Alanine-Glycine-Alanine-Lysine-Cysteine-Methionine-Asparagine-Glycine-Lysine-Cysteine-Lysine-Cysteine-Tyrosine-Asparagine-Asparagine [NTX 1-39]”, the immunogenicity result in the series with BALB/c mice is “immunogenic”. Moreover, the “blockade of potassium permeability / potassium channels” value in the series on mouse brain synaptosomes (excitable membranes such as brain synaptosomes) is listed as “blocks potassium permeability”. In addition, in series [1], the “survival of immunized population” value is “more than 75%”.

Consider “Tyrosine-Glycine-Serine-Serine-Alanine-Glycine-Alanine-Lysine-Cysteine-Methionine-Asparagine-Glycine-Lysine-Cysteine-Lysine-Cysteine-Tyrosine-Asparagine-Asparagine [NTX 21-39]”, for which, in the series on BALB/c mice, the immunogenicity result is “immunogenic”.
